The conditions of series [1]: side-chain -SH versus -SeH; cited from earlier work.
For the next series, the system named is MCF-7. In words: Mitogenicity: cyclin D1 / cyclin G2 mRNA by q-RT-rtPCR in MCF-7 cells. Format: cell-based, human.

Excerpt for MCF-7: Increased expression of the gene encoding cyclin D1 and decreased expression of the gene encoding cyclin G2 are characteristic of cellular proliferation in response to signaling by mitogenic insulin analogues or IGFs.
An assay for relative mitogenicity among insulin analogues is provided by transcriptional signaling leading to reciprocal regulation of the genes encoding cyclin D1 and cyclin G2 (Glidden, M. D., et al. (2018) J. Biol. Chem. 293: 47-68).

For the compound `N[C@@H](CS)C(=O)O` [Cys, cysteine], the pKa entry in series [1] is “approximately 8.3”. With `N[C@@H](C[SeH])C(=O)O` [Sec, selenocysteine], the pKa entry in series [1] is reported as “approximately 5.2”. Consider “IGF-1: mitogenic growth factor, positive control”, for which, in the series on MCF-7, the “mitogenic signature (cyclin D1 activation, cyclin G2 repression)” value is “stimulates cyclin D1 transcription and inhibits cyclin G2 transciption to a more marked extent”.

These data come from US20220144915A1, “STABILIZATION OF PRANDIAL OR BASAL INSULIN ANALOGUES BY AN INTERNAL DISELENIDE BRIDGE” (THE TRUSTEES OF INDIANA UNIVERSITY, priority 2019, published 2022).
